The values that follow come from US5767298A, “Aminophospholipid compositions and uses thereof” (Indiana University Foundation, priority 1996, dated 1998).

Data set [1] deals with human erythrocytes. In words: Back extraction of dilauroyl phospholipids from human erythrocytes with DOPC vesicles. Type of data set: cell-based. As for the experimental part: (§1) Timecourse of erythrocyte shape change (MI) induced by suspensions of C-DLPS (200 μM, open circles, open triangles) and DLPC (200 μM, open squares) in HBS. After 15 min (arrow), one sample of cells (open circles) was centrifuged, resuspended in citrate buffer (100 mM, pH 5.5) and re-incubated at 37° C. At 15 or 75 min, aliquots of each sample were removed and treated with DOPC vesicles (20 mM, 5% HCT) for 15 min at 37° C. (closed symbols). At the indicated times aliquots were fixed with glutaraldehyde and analyzed by light microscopy.
Back extraction of dilauroyl phospholipids from human erythrocytes. Washed red blood cells were incubated with DLPS, DLPC, or C-DLPS (200 μM) in HBS at 50% HCT for 90 min at 37° C. After 15 min, an aliquot of the cells was removed and the short chain phospholipids in the outer monolayer were back extracted with sonicated DOPC vesicles (20 mM) in HBS at 5% HCT for 15 min at 37° C. A separate aliquot of C-DLPS-treated cells was removed at 15 min, centrifuged, resuspended in citrate buffer (pH 5.5), and reincubated at 37° C. After 60 min, an aliquot from the cells incubated at low pH was removed and the short chain phospholipids remaining in the outer monolayer were back extracted with DOPC. Two additional control experiments were performed: 1] DLPC (200 μM) was incorporated into cells as described above for 15 min and then back extracted with DOPC vesicles, and 2] cells without exogenously added lipid were incubated with DOPC vesicles under the conditions of the back extraction assay. In each of the forgoing experiments aliquots were removed at the prescribed time points and the morphological index was determined by light microscopy.

For data set [2] the following is noted: for time constant tau1 (initial fast component) / time constant tau2 (slow component): biexponential fit; for half-time for cleavage: citrate buffer, pH 5.5.
Procedure: The extent of cleavage was determined by phosphate analysis of thin layer chromatographic separations of extracted lipids. The solid lines are non-linear least squares fits of the data to a double exponential equation (f(x)=α1*exp(-x/.tau.1)+α2*exp(-x/.tau.2)).
C-DOPE (0.5 mM, column 1) and C-DOPS (0.5 mM, columns 2-5) were suspended in citrate buffer, pH 5.5 (columns 1 and 2) containing Triton X-100 (0.1%, column 3), NaCl (1M, column 4) or egg PC (2.5 mM, column 5) and incubated for 1 h at 37° C. The extent of cleavage was quantitated by phosphate determination of thin layer chromatographic separations of extracted lipids. Kinetic parameters were determined by non-linear least squares fits of the data to a double exponential equation (see FIG. 2): A. Exponential coefficients α1 (open bars) and α2 (filled bars) B. Time constants .tau.1 (open bars) and .tau.2 (filled bars).
Chloroform solutions of C-DOPS or C-DOPE (0.1 μmol) were dried under nitrogen and resuspended in 200 μL of citrate buffer (50 mM, pH 5.5). MLVs were prepared as described above and placed in a shaking water bath at 37° C. At prescribed time points, the reaction was quenched with 50 μL of Hepes buffer (1M, pH 8.5), the lipid was extracted, and the amount of cleavage was determined by phosphate analysis of TLC-separated lipids.
In one set of experiments, the ionic strength of the citrate incubation buffer (pH 5.5) was raised by including 1M NaCl and cleavage was measured as described above. In a second set of experiments, C-DOPS cleavage was measured in the presence of Triton X-100 (0.1%). In a third set of experiments, a five fold excess of DOPC was add to the lipid suspensions to dilute the surface charge. In a fourth set of experiments, ethanol (0.05-0.5%), DTT (5 mM), aniline (1.5 mM), p-nitroaniline (1.5 mM), and DOPE (2.5 mM) were added in separate experiments to the incubation buffers as scavengers of the anhydride. The lipid products were extracted and isolated by thin-layer chromatography as described previously. A single time point at 2.5 or 3 h was analyzed. All measurements were completed in triplicate and data were fit to a biexponential equation (f(x)=α1*exp(-x/.tau.1)+α2*exp(-x/.tau.2)) using the program MacCurveFit (Kevin Raner, Mt. Waverley, Australia).
Data set [3] can be described thus: pH-dependent cleavage of caged aminophospholipids (MLVs, 1 h, 37° C., phosphate analysis of TLC-separated lipids). It counts as physicochemical. The settings on record: for pH of half-maximal cleavage: 1 h at 37° C.; for cleavage at any pH: pH 3-8, 1 h, 37° C.; for cleavage at pH 3: after extended incubation at pH 3; for significant cleavage at physiologically desirable pH: pH 5.5-8, 37° C. As for the experimental part:
Derivatized aminophospholipids (C-DOPS (open circles), C-DOPE (filled circles), M-DOPE (open squares), D-DOPE (filled squares), T-DOPE (open triangles), and P-DOPE (filled triangles), 0.5 mM each) were suspended in citrate (pH 3, 4.5, and 6) or Hepes (pH 7 and 8) buffer and incubated for 1 h at 37° C.
pH-Dependent cleavage measurements. A chloroform solution of the "caged" aminophospholipid (0.1 μmol) being tested was dried under nitrogen and the lipid was resuspended in buffers (200 μL) of varying pH; pH 3 (50 mM citrate), pH 4.5 (50 mM citrate), pH 6 (50 mM citrate), pH 7 (50 mM Hepes), and pH 8 (50 mM Hepes), adjusted to physiological ionic strength (290-310 mOsM) with NaCl. Solutions were vortexed briefly to make multilamellar vesicles (MLVs) and placed in a shaking water bath for 1 h at 37° C. The reaction was quenched after 1 h with a Hepes buffer (0.5M, pH 8.0). The lipid was extracted and the aqueous phase washed twice with chloroform. The derivative was separated from DOPE or DOPS by normal phase silica TLC eluted with CHCl3:CH3OH:NH4OH:H2O (65:25:2.5:2.5). The fraction cleaved was determined by phosphate analysis of the corresponding iodine stained spots. A background measurement, not incubated at 37° C. for 1 h, but subjected to the same extraction and TLC procedures, was performed to correct for hydrolysis that occurred during workup. All measurements were completed in triplicate.
The pH dependence of cleavage of the DOPS and DOPE derivatives was determined by incubating lipid dispersions (MLVs) in buffers of varying pH for 1 h at 37° C. Hydrolysis was measured by phosphate analysis of TLC-separated products.

The conditions of data set [4]: pH 5.5.
Procedure: In a fourth set of experiments, ethanol (0.05-0.5%), DTT (5 mM), aniline (1.5 mM), p-nitroaniline (1.5 mM), and DOPE (2.5 mM) were added in separate experiments to the incubation buffers as scavengers of the anhydride. The lipid products were extracted and isolated by thin-layer chromatography as described previously. A single time point at 2.5 or 3 h was analyzed. All measurements were completed in triplicate and data were fit to a biexponential equation (f(x)=α1*exp(-x/.tau.1)+α2*exp(-x/.tau.2)) using the program MacCurveFit (Kevin Raner, Mt. Waverley, Australia).
This hypothesis was tested by using nucleophilic scavengers to trap the released anhydride. Both water soluble (dithiothreitol, ethanol) and lipophilic (aniline, p-nitroaniline, and DOPE) scavengers were added to C-DOPS solutions and cleavage was measured at a timepoint when the slow rate of cleavage predominated (Table II).
For data set [5], the system named is human erythrocytes. The experiment in a line: Erythrocyte shape change (morphological index): incorporation, uncaging and transport of lipid. It counts as cell-based. As for the experimental part: (§2) A. Timecourse of erythrocyte shape change (morphological index) induced in washed human erythrocytes by C-DOPS liposomes (200 μM) incubated in HBS. At 45 min (arrow), one set of cells was centrifuged, resuspended in citrate buffer (100 mM, pH 5.5) and re-incubated at 37° C. (open circles). Aliquots were fixed with glutaraldehyde and analyzed by light microscopy. B. Low pH-induced cleavage of C-DOP^3 HS in human erythrocytes. Washed human red cells were treated with C-DOP^3 HS (55 nCi) for 45 min at 37° C. in HBS. After centrifugation, the cells were resuspended in citrate buffer (pH 5.5) and reincubated at 37° C. At the indicated timepoints, lipids were extracted from aliquots of cells, C-DOP^3 HS and DOP^3 HS were separated by thin layer chromatography, and radiolabeled lipids were quantitated by scintillation counting.
Washed human erythrocytes were incubated with sonicated suspensions of DLPS (200 μM, open circles, filled circles) or DLPC (200 μM, open squares) in citrate buffer pH 5.5 (open symbols) or in HBS (filled symbols) at 37° C. Aliquots were fixed with glutaraldehyde and analyzed by light microscopy.
as §1
Cells. Human erythrocytes were obtained from healthy adult volunteers by venipuncture and collected into EDTA (3.3 mM final concentration). Erythrocytes were pelleted by centrifugation (5 min, 3000 g), washed three times in Hepes buffered saline (HBS, 118 mM NaCl, 50 mM Hepes, 5 mM KCl, 1 mM MgSO4, 5 mM glucose, pH 8.25), and stored on ice at 50% hematocrit (HCT).
Phosphatidylserine transport assay. Previously washed erythrocytes were pelleted by centrifugation (5 min, 3000 g) and incubated at 50% HCT with sonicated DLPS, DLPC, C-DLPS, or C-DOPS vesicles (200 μM) in HBS according to the method of Daleke and Huestis (1985). At prescribed time points, the cells were fixed by adding 5 μL aliquots to 50 μL of glutaraldehyde (0.5%). Aliquots of fixed cells were examined by light microscopy for changes in cell morphology. Echinocytes were assigned scores of +1 to +5 based on the degree of […], discocytes were scored 0, and stomatocytes were given scores of -1 to -4 based on their degree of […] (Daleke & Huestis, 1989). Echinocytic shapes are indicative of cells with excess lipid in the outer monolayer, while stomatocytic shapes are indicative of cells with excess inner monolayer lipid (Sheetz & Singer, 1974). Thus, cell morphology can be used to measure the movement of exogenously added lipids from the outer to the inner monolayer. The average score of a field of 100 cells is defined as the morphological index (MI).
Hydrolysis of C-DOPS in human erythrocytes. Washed red blood cells were incubated with sonicated C-DOPS vesicles (200 μM) in HBS at 50% HCT for 45 min at 37° C. After 45 min (C-DOPS), the cells were centrifuged (16,000 g, 5 min) and the supernatant was removed. The cells were washed once with a citrate buffer (50 mM, 300 mOsM, pH 5.25) and then incubated at 20% HCT for varying lengths of time in citrate buffer. […] The final pH of the red cell suspensions in HBS was 7.58±0.02 and those suspensions in citrate buffer was 5.72±0.03 pH units. The values were corrected for temperature (37° C.). At the specified time points, an aliquot of cells was fixed and examined by light microscopy.

In data set [6] the test system is aminophospholipid transporter, or "flippase". The settings on record: cited from earlier work; for inhibition of flippase: Seigneuret & Devaux, 1984, Daleke & Huestis, 1985, Connor & Schroit, 1987, Bitbol et al.
In data set [7] the test system is human erythrocytes. The experiment in a line: Cleavage of C-DOP^3 HS in intact human erythrocytes (TLC, scintillation counting). To be noted: citrate buffer pH 5.5, 37° C. It counts as cell-based. As for the experimental part:
as §2
Hydrolysis of C-DOPS in human erythrocytes. […]
Uncaging of the C-DOPS derivative was measured in human red blood cells in order to test the feasibility of using the compound as a probe of aminophospholipid transport in biological membranes. […] Cleavage of C-DOP^3 HS was measured directly in intact erythrocytes. […] Following exchange with citrate buffer (pH 5.5), the cells were incubated at 37° C. and hydrolysis was measured by analysis of extracted lipids separated by thin layer chromatography.

[8] abbreviates: after incorporation in HBS (15 min).
[9] abbreviates: 200 μM, citrate buffer (pH 5.5), 37° C.

With `CCCCCCCCCCCC(=O)OC[C@H](COP(=O)(O)OC[C@H](NC(=O)C(C)=CC(=O)O)C(=O)O)OC(=O)CCCCCCCCCCC` [C-DLPS, N-citraconyl-dilauroylphosphatidylserine], the “cell shape after back extraction with DOPC vesicles” value in the data set with human erythrocytes [1] (15 min in HBS, then low pH for additional 60 min) is given as “reverted to stomatocytes”; in the data set on human erythrocytes [1] (setting [8]), “reverted to discocytes”. Also, the “transbilayer location of lipid” value in the data set on human erythrocytes [1] (HBS) is “remains in the outer monolayer”. Further, in the data set on human erythrocytes [1] (citrate buffer (low pH)), the “transbilayer location of lipid (portion)” value is given as “accumulates in the inner monolayer”.

With `CCCCCCCC/C=C\CCCCCCCC(=O)OC[C@H](COP(=O)(O)OCCNC(=O)/C(C)=C\C(=O)O)OC(=O)CCCCCCC/C=C\CCCCCCCC` [C-DOPE, N-citraconyl-dioleoylphosphatidylethanolamine], in data set [2] (citrate buffer pH 5.5, 37° C.), the “time constant tau1 (initial fast component)” value was 0.9 h and the “time constant tau2 (slow component)” value was 7 h. The half-time for cleavage in data set [2] is on record as 110 min. In addition, in data set [3], the “pH of half-maximal cleavage” value is recorded as 5.5 pH.

As for `CCCCCCCC/C=C\CCCCCCCC(=O)OC[C@H](COP(=O)(O)OC[C@H](NC(=O)/C(C)=C\C(=O)O)C(=O)O)OC(=O)CCCCCCC/C=C\CCCCCCCC` [C-DOPS, N-citraconyl-dioleoylphosphatidylserine], in data set [2] (citrate buffer pH 5.5, 37° C.), the “initial cleavage rate relative to C-DOPE” value is 6 fold, the “time constant tau1 (initial fast component)” value is given as 0.15 h and the “time constant tau2 (slow component)” value worked out at 4.8 h. The same molecule displayed a half-time for cleavage in data set [2] of 85 min. For the same molecule, the “% cleavage - scavenger” value in data set [4] (citrate buffer, 2.5 h) was 55.2%. Also, the “effect of scavengers on slower second rate” value in data set [4] (dithiothreitol, ethanol, aniline, p-nitroaniline, DOPE) is listed as “None of these scavengers attenuated the slower second rate”. Besides, in the data set on human erythrocytes [5] (HBS, 37° C., 200 μM), the “time cells remain echinocytic” value is “more than 1.5 h”. In addition, the “cell shape after exchange of buffer to low pH” value in the data set on human erythrocytes [5] (Hepes buffer exchanged for citrate buffer (pH 5.5)) was “reverted to a more discoid shape”. Further, the “pH of half-maximal cleavage” value in data set [3] was determined as 6.5 pH.

As for `CCCCCCCC/C=C\CCCCCCCC(=O)OC[C@H](COP(=O)(O)OCCNC(=O)/C(C)=C(/C)C(=O)O)OC(=O)CCCCCCC/C=C\CCCCCCCC` [D-DOPE, N-dimethylmaleyl-dioleoylphosphatidylethanolamine], the “cleavage at any pH” value in data set [3] is “not cleaved to any appreciable extent”.

Turning to `CCCCCCCCCCCC(=O)OCC(COP(=O)([O-])OCC[N+](C)(C)C)OC(=O)CCCCCCCCCCC` (stereo not drawn) [DLPC, dilauroylphosphatidylcholine], in the data set with human erythrocytes [5] (setting [9]), the “time echinocytic shape is retained” value is given as “more than 1.5 h” and the “time to become echinocytic” value is reported as not above 2 min. For the same molecule, the “shape changes at higher pH compared with pH 5.5” value in the data set on human erythrocytes [5] (higher pH, data not shown) is “similar”. Also, the “cell shape after back extraction with DOPC vesicles” value in the data set on human erythrocytes [1] (setting [8]) is listed as “identical results”.

Regarding `CCCCCCCCCCCC(=O)OCC(COP(=O)(O)OCC(N)C(=O)O)OC(=O)CCCCCCCCCCC` (stereo not drawn) [DLPS, dilauroylphosphatidylserine], the erythrocyte shape change result in the data set with human erythrocytes [5] (200 μM, HBS, 37° C.) is listed as “became echinocytic initially but rapidly reverted to stomatocytes”; in the data set on human erythrocytes [5] (setting [9]) it was “became echinocytic initially but rapidly reverted to stomatocytes”.

For the molecule `CCCCCCCC/C=C\CCCCCCCC(=O)OCC(COP(=O)(O)OCCNC(=O)/C=C\C(=O)O)OC(=O)CCCCCCC/C=C\CCCCCCCC` (stereo not drawn) [M-DOPE, N-maleyl-dioleoylphosphatidylethanolamine], in data set [3], the “cleavage at pH 3” value stood at 25% and the “significant cleavage at physiologically desirable pH” value is “did not occur”.

Turning to `CCCCCCCC/C=C\CCCCCCCC(=O)OCC(COP(=O)(O)OCCNC(=O)c1ccccc1C(=O)O)OC(=O)CCCCCCC/C=C\CCCCCCCC` (stereo not drawn) [P-DOPE, N-phthalyl-dioleoylphosphatidylethanolamine], in data set [3], the “cleavage at pH 3” value is on record as 25% and the “significant cleavage at physiologically desirable pH” value is “did not occur”.

On to `[Ca+2]` [calcium], for which the inhibition of flippase result in data set [6] is “inhibited”.

Consider `[O]=[V]([O-])([O-])[O-]` [vanadate], for which the inhibition of flippase entry in data set [6] is on record as “inhibited”.

As for “N-3,4,5,6-tetrahydrophthalyl-phosphatidylethanolamine [T-DOPE]”, the “cleavage at any pH” value in data set [3] is on record as “not cleaved to any appreciable extent”.

With “citraconyl-dioleoylphosphatidyl-[3-^3 H]serine [C-DOP^3 HS]”, in the data set on human erythrocytes [7], the “cleavage in erythrocytes compared with model membranes” value was “followed a similar timecourse and extent in erythrocytes as in model membranes”.

For phosphatidylserine [PS], the “affinity of flippase relative to PE” value in data set [6] (PS versus PE, Zachowski et al., 1986) was “approximately ten-fold”.
